Measurements published in article PMC10341549, “Inhibitory Investigations of Acyl-CoA Derivatives against Human Lipoxygenase Isozymes” (International Journal of Molecular Sciences, 2023).
Entries after “also recorded” stand apart in the source; their conditions may differ.

Assays:
h15-LOX-2 = target: T1, h15-LOX-2 (Homo sapiens, UniProt O15296); assay: Kinetic investigation of oleoyl-CoA (18:1) inhibition of h15-LOX-2; format: biochemical
T1 construct: His tag; made in house
T1 sequence (O15296 1-676): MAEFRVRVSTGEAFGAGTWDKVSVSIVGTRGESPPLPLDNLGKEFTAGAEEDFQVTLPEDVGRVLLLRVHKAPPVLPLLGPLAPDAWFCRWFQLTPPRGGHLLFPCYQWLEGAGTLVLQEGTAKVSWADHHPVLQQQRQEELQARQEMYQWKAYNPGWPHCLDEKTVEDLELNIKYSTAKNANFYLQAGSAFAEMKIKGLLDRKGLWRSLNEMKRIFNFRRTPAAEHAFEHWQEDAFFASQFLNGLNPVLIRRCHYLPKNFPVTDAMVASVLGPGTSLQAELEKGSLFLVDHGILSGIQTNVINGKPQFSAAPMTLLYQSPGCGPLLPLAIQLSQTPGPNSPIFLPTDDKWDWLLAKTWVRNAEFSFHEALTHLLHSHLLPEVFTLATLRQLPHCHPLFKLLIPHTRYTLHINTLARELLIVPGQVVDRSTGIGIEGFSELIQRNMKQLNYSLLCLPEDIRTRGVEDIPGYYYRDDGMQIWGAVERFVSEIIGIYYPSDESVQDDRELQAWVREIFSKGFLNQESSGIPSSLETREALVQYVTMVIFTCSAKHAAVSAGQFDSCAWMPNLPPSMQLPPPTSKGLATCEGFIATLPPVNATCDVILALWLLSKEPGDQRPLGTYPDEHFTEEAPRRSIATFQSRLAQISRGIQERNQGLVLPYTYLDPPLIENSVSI
Method: (1) 1/v=(αKM/kcat)[([I]+Ki)/(β[I]+αKi)]×1/[S]+1/kcat×[([I]+αKi)/(β[I]+αKi)] (2) KM(app)=αKM[([I]+Ki)/[…]] (3) kcat/KM=(kcat/αKM)[(β[I]+αKi)/([I]+Ki)] (4) kcat=kcat[(β[I]+αKi)/([I]+αKi)]
These two parameters were then utilized to fit Equation (3) relative to kcat/KM (app), which yielded a β value of 0.26 +/− 0.23 (Figure 2). Given the high error for the β value, β was also determined by applying the values for α and Ki from the KM (app) plot to Equation 4 and fitted to the kcat data (Figure 3). This fit yielded a β value of 0.30 +/− 0.07, consistent with the Equation 3 fit but with a lower error value. These kinetic values indicate hyperbolic allostery, α > 1 (K-type inhibition) and β < 1 (V-type inhibition), with the kinetic change being equally observed in both KM (α = 3.2 +/− 1) and kcat (β = 0.30 +/− 0.07). […] It should be noted that the Ki values from our hyperbolic fits (82 +/− 70 nM) were dramatically lower than those determined from IC50 measurements (620 ± 60 nM), which is consistent with the more accurate nature of the hyperbolic fits relative to the IC50 fits, due to the oversimplification of the IC50 analysis.
The reactions were carried out in 25 mM HEPES buffer (pH 7.5), 0.01% Triton X-100. […] Reactions were performed at 22 °C in a 1 cm^2 quartz cuvette containing 2 mL of the according buffer for no longer than 2 min to avoid any cleavage of the acyl-coenzyme A. Using a Cary-UV Vis spectrophotometer, the fastest rates over 15 s intervals were recorded. Kinetic values were obtained by plotting the rate against the substrate concentration, followed by a hyperbolic saturation curve fit. The saturation curve fits were performed in triplicate and on separate days to ensure there was no bias. The equations used to find kinetic values were from previous studies.

h15-LOX-1 = target: T2, h15-LOX-1 (Homo sapiens, UniProt P16050); assay: Substrate activity and kinetic parameters with h15-LOX-1; format: biochemical; conditions: acyl-CoAs tested at 70 µM, change in absorbance at 234 nm
T2 construct: His tag; made in house
T2 sequence (P16050 1-662): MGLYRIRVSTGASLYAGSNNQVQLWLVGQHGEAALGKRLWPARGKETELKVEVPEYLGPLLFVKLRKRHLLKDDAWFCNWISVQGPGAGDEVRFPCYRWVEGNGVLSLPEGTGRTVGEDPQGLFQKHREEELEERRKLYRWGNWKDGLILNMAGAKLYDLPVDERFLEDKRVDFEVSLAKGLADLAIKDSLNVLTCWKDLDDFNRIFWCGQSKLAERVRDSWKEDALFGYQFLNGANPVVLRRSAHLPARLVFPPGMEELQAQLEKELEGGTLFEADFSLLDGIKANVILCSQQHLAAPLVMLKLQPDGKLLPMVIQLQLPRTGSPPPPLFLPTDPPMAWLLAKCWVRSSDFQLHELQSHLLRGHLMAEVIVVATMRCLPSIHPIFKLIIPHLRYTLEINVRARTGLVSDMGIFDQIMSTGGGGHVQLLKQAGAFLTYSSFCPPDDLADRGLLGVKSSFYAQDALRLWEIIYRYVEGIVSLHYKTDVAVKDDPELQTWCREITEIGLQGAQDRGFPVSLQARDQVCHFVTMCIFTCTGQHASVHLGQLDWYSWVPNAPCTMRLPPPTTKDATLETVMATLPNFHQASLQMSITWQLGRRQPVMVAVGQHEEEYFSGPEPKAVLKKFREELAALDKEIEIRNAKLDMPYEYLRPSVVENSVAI
Method: Considering that some of these acyl-CoAs could potentially be substrates for LOX isozymes, each acyl-CoA was tested at 70 µM against each LOX isozyme to establish the possibility of catalysis.
The same buffer as used to determine IC50 values for h5-LOX was used for product determination. Turnover was monitored by absorbance at 234 nm.

Row | β (the change in kcat), Equation 4 fit (h15-LOX-2; fit of kcat data) | β (the change in kcat), Equation 3 fit (h15-LOX-2; fit of kcat/KM (app)) | Ki (h15-LOX-2; h15-LOX-2, substrate AA, pH 7.5, 22 °C, read-out: Ki (allosteric, hyperbolic fit of KM (app), Equation 2)) [nM] | Substrate activity with h15-LOX-1 (h15-LOX-1) | Structure (SMILES) | Type of inhibition of h15-LOX-2 (h15-LOX-2) | Substrate activity with h15-LOX-1 (h15-LOX-1; listed as linoleoyl-CoA (18:2))
1 | 0.30 +/− 0.07 | 0.26 +/− 0.23 | 82 |  | CCCCCCCC/C=C\CCCCCCCC(=O)SCCNC(=O)CCNC(=O)[C@H](O)C(C)(C)COP(=O)(O)OP(=O)(O)OC[C@H]1O[C@@H](n2cnc3c(N)ncnc32)[C@H](O)[C@@H]1OP(=O)(O)O [Oleoyl-CoA (18:1), oleoyl-coenzyme A (18:1)] | allosteric inhibition (i.e., partial inhibition) | 
2 |  |  |  | (Substrate) | CCCCC/C=C\C/C=C\CCCCCCCC(=O)SCCNC(=O)CCNC(=O)[C@H](O)C(C)(C)COP(=O)(O)OP(=O)(O)OC[C@H]1O[C@@H](n2cnc3c(N)ncnc32)[C@H](O)[C@@H]1OP(=O)(O)O [Linoleoyl-CoA (18:2), linoleoyl-CoA] |  | substrates; also recorded: rapid substrate
